One assay addresses T1, Taxadiene Synthase (TDS) (Taxus brevifolia, UniProt Q41594).
T1 construct: truncated first 60 amino acids, methionine added; made in house; host or cells: E. coli BL21 (DE3)
T1 sequence (Q41594 61-862 limits assumed): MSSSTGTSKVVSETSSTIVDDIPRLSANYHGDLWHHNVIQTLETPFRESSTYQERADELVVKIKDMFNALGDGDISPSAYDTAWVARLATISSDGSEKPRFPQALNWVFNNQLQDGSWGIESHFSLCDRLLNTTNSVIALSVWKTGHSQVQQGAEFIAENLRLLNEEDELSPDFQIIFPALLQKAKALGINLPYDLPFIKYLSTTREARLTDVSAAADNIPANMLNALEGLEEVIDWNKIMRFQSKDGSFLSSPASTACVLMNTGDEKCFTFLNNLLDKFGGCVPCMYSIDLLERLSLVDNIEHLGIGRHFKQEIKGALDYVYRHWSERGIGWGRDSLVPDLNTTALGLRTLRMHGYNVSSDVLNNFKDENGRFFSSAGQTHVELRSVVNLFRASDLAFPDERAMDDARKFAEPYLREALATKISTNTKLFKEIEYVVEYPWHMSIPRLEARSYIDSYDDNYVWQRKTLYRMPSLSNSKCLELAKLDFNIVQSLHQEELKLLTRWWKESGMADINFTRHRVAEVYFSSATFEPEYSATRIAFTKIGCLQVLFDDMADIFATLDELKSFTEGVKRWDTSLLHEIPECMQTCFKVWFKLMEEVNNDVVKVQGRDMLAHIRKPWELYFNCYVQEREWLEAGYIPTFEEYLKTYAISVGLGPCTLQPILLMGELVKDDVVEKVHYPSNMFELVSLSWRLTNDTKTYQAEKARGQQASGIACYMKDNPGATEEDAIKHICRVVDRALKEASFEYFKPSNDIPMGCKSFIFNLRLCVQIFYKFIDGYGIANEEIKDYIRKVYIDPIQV
The assay can be described thus: TDS activity by pyrophosphate assay. It is filed as biochemical. The following applies: 30° C., pH 7.4.

The target in assay [1] is T2, isopentenyl phosphate kinase (IPK) (Arabidopsis thaliana, UniProt Q8H1F7).
T2 construct: Arabidopsis thaliana (AAN12957.1), codon optimized; made in house; host or cells: E. coli BL21 (DE3)
T2 sequence (Q8H1F7 1-332): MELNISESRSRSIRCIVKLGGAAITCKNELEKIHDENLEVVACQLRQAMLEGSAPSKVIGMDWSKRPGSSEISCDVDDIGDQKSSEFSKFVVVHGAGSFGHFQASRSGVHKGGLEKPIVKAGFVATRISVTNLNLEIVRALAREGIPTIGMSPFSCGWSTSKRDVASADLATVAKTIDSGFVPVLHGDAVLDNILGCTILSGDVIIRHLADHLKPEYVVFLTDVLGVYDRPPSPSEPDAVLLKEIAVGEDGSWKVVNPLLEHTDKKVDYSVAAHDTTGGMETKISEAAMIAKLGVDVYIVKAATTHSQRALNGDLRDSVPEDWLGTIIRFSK
The assay can be described thus: IPK kinetics by ATP consumption, PK-LDH coupled NADH assay. It is filed as biochemical. The following applies: 10 mM ATP, 30° C., pH 7.4. The protocol: A single colony from each strain containing one plasmid for the expression of a single enzyme was inoculated into 5 mL of sterile LB media (BD Sciences) with kanamycin and grown overnight at 37° C. One milliliter was then inoculated into a 1 L flask containing 200 mL of sterile SOB media (AMERSCO) with kanamycin. The culture was grown at 30° C. until an optical density (OD) of 0.4-0.6 (λ=600 nm). At this point protein production was induced by the addition of IPTG for a final concentration of 0.1 mM and continued at 30° C. for 3 h. Cells were harvested by centrifugation at 3750 rpm in an Allegra X12R centrifuge (Beckman-Coulter). The supernatant was removed and the cell pellets were frozen at −20° C. until purification. Proteins were visualized by SDS-PAGE performed accordingly to the manufacturer's guidelines (Bio-rad). Gradient (4-20%) gels were purchased from Biorad, as were the Kaleidoscope pre-stained protein ladder, Laemmli 4× sample buffer, Tris-glycine-SDS buffer, and mini-protean electrophoresis chambers. Gels were stained using Instant-Blue (Expedeon). Protein concentrations were very roughly estimated from the gel using Image J (NIH) in order to determine an appropriate amount of resin for purification. Protein Purification All purification steps were performed in a single day on ice and in a cold room when possible. Cell pellets were thawed and resuspended in 30 mL of NPI-10 buffer (50 mM NaH2PO4, 300 mM NaCl, 10 mM imidazole, pH 8.0) and supplemented with 0.5 mM PMSF immediately prior to cell lysis. Cells were lysed by 2-3 passages through an EmulsiFlex-C5 high-pressure homogenizer (Avestin). Lysates were then centrifuged at 4 C for 15 min to remove cellular debris. The clarified lysate was loaded onto a Ni-NTA resin (Gold Bio, capacity 50 mg/mL) which was housed in a gravity column (Thermofisher) and was pre-equilibrated with 10 column volumes (CV) of NPI-10 buffer. The column was then washed with 10 CV of NPI-20 buffer (20 mM imidazole). The enzyme was then eluted from the column by 3 CV using NPI-250 buffer (250 mM imidazole). Enzymes were then exchanged into 50 mM Tris-HCl pH 7.5 using 10 kDa Microseps (Millipore) by centrifugation and repeated buffer exchanges until the imidazole was calculated to be under 1 mM. […] Enzyme concentration was determined using a bicinchoninic acid (BCA) assay kit from Pierce using bovine serum albumin as a standard (BSA). […] The kinetics for CK were previously determined as described. The kinetics for IPK were determined by ATP consumption using a pyruvate kinase (PK) lactate dehydrogenase (LDH) coupled assay (FIGS. 16A & 16B). […] NADH was made fresh each time and the appropriate concentration was determined by constructing a standard curve using a SpectraMax M3 and selecting the highest value in the linear range. […]

A further assay concerns the target T3, IPK (Arabidopsis thaliana, UniProt Q8H1F7).
T3 construct: Arabidopsis thaliana (AAN12957.1), codon optimized; made in house; host or cells: E. coli BL21 (DE3)
T3 sequence (Q8H1F7 1-332): T2 sequence (Q8H1F7 1-332)
Kind of assay: Metabolic control analysis (lin-log elasticities) of multi-enzyme perturbation study. The class given is biochemical. Conditions: lin-log kinetics, 60 min, 5 mM isoprenol, 10 mM ATP.

A further assay concerns the target T4, CK (Saccharomyces cerevisiae, UniProt P20485).
T4 construct: S. cerevisiae (AAA34499.1), codon optimized; made in house; host or cells: E. coli BL21 (DE3)
T4 sequence (P20485 1-582): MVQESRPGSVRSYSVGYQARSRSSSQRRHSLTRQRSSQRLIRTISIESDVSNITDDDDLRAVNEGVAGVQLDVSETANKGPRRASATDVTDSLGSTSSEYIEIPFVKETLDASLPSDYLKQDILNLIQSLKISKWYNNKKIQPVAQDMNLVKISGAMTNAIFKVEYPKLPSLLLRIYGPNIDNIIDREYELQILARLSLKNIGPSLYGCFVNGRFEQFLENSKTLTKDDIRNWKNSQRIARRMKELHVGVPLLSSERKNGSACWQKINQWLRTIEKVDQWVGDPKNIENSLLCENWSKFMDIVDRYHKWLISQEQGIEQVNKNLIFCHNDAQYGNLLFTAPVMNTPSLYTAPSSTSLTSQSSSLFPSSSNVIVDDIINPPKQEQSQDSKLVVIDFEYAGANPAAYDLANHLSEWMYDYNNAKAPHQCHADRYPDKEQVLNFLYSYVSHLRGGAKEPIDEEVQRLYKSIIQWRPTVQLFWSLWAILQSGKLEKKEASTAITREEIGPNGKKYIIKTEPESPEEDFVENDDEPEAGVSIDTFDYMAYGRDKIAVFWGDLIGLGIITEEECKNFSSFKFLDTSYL
Described as above. It is filed as biochemical. Conditions: lin-log kinetics, 60 min, 5 mM isoprenol, 10 mM ATP.

Assay [2] concerns Geranylgeranyl pyrophosphate synthase (GGPPS). Conditions: reported elsewhere (Hefner et al., 1998); cited from earlier work.
In assay [3] the target is Geranylgeranyl pyrophosphate synthase (GGPPS) (Taxus canadensis, UniProt Q9ZPM3). The assay can be described thus: GGPPS activity by pyrophosphate formation (EnzChek pyrophosphate assay). The class given is biochemical. The following applies: reaction IPP + FPP; IPP varied with FPP held at 100 μM. The protocol: A single colony from each strain containing one plasmid for the expression of a single enzyme was inoculated into 5 mL of sterile LB media (BD Sciences) with kanamycin and grown overnight at 37° C. One milliliter was then inoculated into a 1 L flask containing 200 mL of sterile SOB media (AMERSCO) with kanamycin. The culture was grown at 30° C. until an optical density (OD) of 0.4-0.6 (λ=600 nm). At this point protein production was induced by the addition of IPTG for a final concentration of 0.1 mM and continued at 30° C. for 3 h. Cells were harvested by centrifugation at 3750 rpm in an Allegra X12R centrifuge (Beckman-Coulter). […] Enzymes were then exchanged into 50 mM Tris-HCl pH 7.5 using 10 kDa Microseps (Millipore) by centrifugation and repeated buffer exchanges until the imidazole was calculated to be under 1 mM. […] Enzyme concentration was determined using a bicinchoninic acid (BCA) assay kit from Pierce using bovine serum albumin as a standard (BSA). […] The kinetics for CK were previously determined as described. The kinetics for IPK were determined by ATP consumption using a pyruvate kinase (PK) lactate dehydrogenase (LDH) coupled assay (FIGS. 16A & 16B). […] NADH was made fresh each time and the appropriate concentration was determined by constructing a standard curve using a SpectraMax M3 and selecting the highest value in the linear range. […]
Geranylgeranyl pyrophosphate synthase (GGPPS) (Taxus canadensis, UniProt Q9ZPM3), sequence (Q9ZPM3 entry or part of it): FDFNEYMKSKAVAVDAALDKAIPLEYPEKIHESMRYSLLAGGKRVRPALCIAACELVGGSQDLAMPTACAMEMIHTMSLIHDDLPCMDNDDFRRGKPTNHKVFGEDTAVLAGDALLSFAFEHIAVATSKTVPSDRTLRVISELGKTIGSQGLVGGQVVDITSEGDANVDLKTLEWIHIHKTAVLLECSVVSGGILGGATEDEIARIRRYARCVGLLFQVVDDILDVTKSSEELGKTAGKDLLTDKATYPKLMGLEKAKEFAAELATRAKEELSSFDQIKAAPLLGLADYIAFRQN

Assay [4] has as its target Farnesyl pyrophosphate synthase (IspA) (Escherichia coli, UniProt P22939). Conditions: Ref Ku et al., 2005, Weaver et al., 2015, cited from earlier work.

Where two headings read alike, the source gives them in different places.

Farnesyl pyrophosphate synthase (IspA), sequence (P22939 whole entry): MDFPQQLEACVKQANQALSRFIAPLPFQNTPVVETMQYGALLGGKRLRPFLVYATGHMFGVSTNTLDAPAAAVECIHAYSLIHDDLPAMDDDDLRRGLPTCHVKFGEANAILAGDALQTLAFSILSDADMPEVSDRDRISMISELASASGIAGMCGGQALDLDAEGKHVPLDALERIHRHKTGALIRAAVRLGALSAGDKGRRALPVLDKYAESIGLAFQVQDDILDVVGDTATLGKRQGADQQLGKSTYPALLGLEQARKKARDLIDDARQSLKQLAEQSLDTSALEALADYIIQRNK
Method for CK: In order to identify a PSS, an in vitro reaction was run, using the optimal enzyme concentrations, as predicted from the initial perturbation study, using a “main interactions only” linear regression model. A time profile of metabolic intermediate concentrations was constructed (FIG. 32). […] The reaction was stopped at 60 min in the repeat experiment.
[formula] where i represents the unit vector, v represents the relative flux compared to the reference state flux J^0, E^x0 represents the elasticity matrix for the metabolic intermediate concentrations (x^0) in relation to the enzyme concentration compared to the reference state as designed by e/e^0 and the relative intermediate metabolic concentrations compared to the reference state (x/x^0).
By applying this model to the data generated in the large perturbation study and alternating the designated reference state, 25 sets of elasticities were generated, using the maximum connectivity assumption to calculate the elasticity of every enzyme for each measured metabolite.

As for `CC(C)=CCC/C(C)=C/CC/C(C)=C/CC/C(C)=C/COP(=O)(O)OP(=O)(O)O` [GGPP, geranylgeranyl diphosphate], at Taxadiene Synthase (TDS), the Km amounted to 43 µM and the kcat stood at 23.1 S^−1.
`C=C(C)CCOP(=O)(O)O` [IP, isopentenyl monophosphate]: in assay [1], the Km turned out to be 21.7 µM and the kcat was found to be 45.5 S^−1. Moreover, on IPK, the “effect on IPK activity (elasticity)” value is given as “stimulatory”. Besides, on CK, the “effect on CK activity (elasticity)” value is recorded as “slightly inhibitory”.
Consider `C=C(C)CCO[P@@](=O)(O)OP(=O)(O)O` [IPP, isopentenyl pyrophosphate], for which the Km is 6 µM in assay [2], 13.5 µM in assay [3], 29.3 µM in assay [4] (reaction IPP + DMAPP) and 5.5 µM in assay [4] (reaction IPP + GPP).

As a reminder, the Km is the concentration of substrate that gives half-maximal velocity.

Values taken from US11034980B2, “Microbial engineering for the production of isoprenoids” (Massachusetts Institute of Technology, priority 2018, dated 2021).
